Experimental data reported in patent US7256178B2, “Physiologically active substances” (priority 2002, dated 2007).

Tests used:
[1] = Stability in an aqueous solution (HPLC); type: physicochemical; settings: for Remaining percentage (%): pH 7 Britton-Robinson buffer solution, 25° C., 24 hours
Method: The compound of the formula (I) was dissolved in DMSO at a concentration of 10 to 20 mM, and the solution was diluted with a pH 7 Britton-Robinson buffer solution to about 500-fold. This solution was used as a sample solution, and was incubated at 25° C. for 24 hours.
The sample solution before and after the incubation was analyzed using high-performance liquid chromatography to obtain a chromatogram. The percentage of the compound remaining in the sample solution after the incubation was determined from the peak area of the chromatogram.

[2] = system: P388 mouse leukemia cells; settings: RPM-1640 culture medium; cited from earlier work
[3] = system: L-1210 mouse leukemia cells; settings: RPM-1640 culture medium; cited from earlier work
[4] = system: HL-60 human leukemia cells; settings: RPM-1640 culture medium; cited from earlier work
[5] = system: P388 mouse leukemia cells; settings: cited from earlier work

CCC(OC)C(C)C1OC1C(O)C(C)/C=C/C=C(\C)C1OC(=O)CC(O)CCC(C)(O)C(OC(C)=O)/C=C/C1C (stereo not shown) [FD-895]
Stability in an aqueous solution (in words) [1]: instable in an aqueous solution
Remaining percentage (%) [1]: 83.0%
Remaining percentage (%) ([1]; listed as FD895): 83%
Cytotoxic activity in vitro [2]: has cytotoxic activity
Cytotoxic activity in vitro [3]: has cytotoxic activity
Cytotoxic activity in vitro [4]: has cytotoxic activity
Antitumor activity in vivo [5]: did not show antitumor activity
